assay: recombinant UMI read abundance after kanamycin selection (control-corrected) (log10(CPM+1)); higher = more efficient recombination; extreme values may be limits of the assay; sequences stand for … in AGTGCAGAGAAAATCGGCCAGTTTTCTCTGCCTGCAGTCCGCATGCCGTGGGACCCCTTGGGTTCTAACCTGTTGCCTAGATTTATGCAGCGGACTGCCTTTCTCCCAAAGTGATAAACCGG…AGGTTGGTTTCACT; site = the 11-nt donor
In short: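 Pooled Escherichia coli screen of donor and donor-binding-loop pairs for the IS621 bridge recombinase. Each pair sits with a 12-nt UMI on a plasmid carrying a promoterless kanamycin gene. The library was co-electroporated with a target plasmid encoding a fixed target and T7-inducible recombinase, then plated with IPTG (0.07 mM) plus kanamycin, or unselected, each in two replicates. Recombinant UMIs were PCR-amplified across the donor–target junction and sequenced. Counts became CPM, averaged over replicates, scaled by control-derived factors and reported as log10(CPM+1).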
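Note: IS621 bridge recombinase in Escherichia coli cells against a fixed T5 target plasmid.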

| Sequence | recombinant UMI read abundance (log10) |
| --- | --- |
| CTACTAACATGGACCGGTTTTCCCGGTAATCCGTATTTGGA (site CTACAAACTTC) | 0.00657 |
| CTACTAACATGGACCGGTTTTCCCGGTAATCCGTATTTGGA (site CTACCAACTTC) | 0.307 |
| CTACTAACATGGACCGGTTTTCCCGGTAATCCGTATTTGGA (site CTACGAACTTC) | 0.00735 |
| CTACTAACATGGACCGGTTTTCCCGGTAATCCGTATTTGGA (site CTACTAACTAC) | 0.0107 |
| CTACTAACATGGACCGGTTTTCCCGGTAATCCGTATTTGGA (site CTACTAACTCC) | 0.516 |
| CTACTAACATGGACCGGTTTTCCCGGTAATCCGTATTTGGA (site CTACTAACTGC) | 0 |
| CTACTAACATGGACCGGTTTTCCCGGTAATCCGTATTTGGA (site CTACTAACTTA) | 1.4 |
| CTACTAACATGGACCGGTTTTCCCGGTAATCCGTATTTGGA (site CTACTAACTTC) | 1.69 |
| CTACTAACATGGACCGGTTTTCCCGGTAATCCGTATTTGGA (site CTACTAACTTG) | 1.13 |
| CTACTAACATGGACCGGTTTTCCCGGTAATCCGTATTTGGA (site CTACTAACTTT) | 1.96 |
| CTACTAACATGGACCGGTTTTCCCGGTAATCCGTATTTGGA (site CTACTACCTTC) | 0.0182 |
| CTACTAACATGGACCGGTTTTCCCGGTAATCCGTATTTGGA (site CTACTAGCTTC) | 0.689 |
| CTACTAACATGGACCGGTTTTCCCGGTAATCCGTATTTGGA (site CTACTATCTTC) | 1.4 |
| CTACTAACATGGACCGGTTTTCCCGGTAATCCGTATTTGGA (site CTACTCACTTC) | 0.0167 |
| CTACTAACATGGACCGGTTTTCCCGGTAATCCGTATTTGGA (site CTACTGACTTC) | 0.00472 |
| CTACTAACATGGACCGGTTTTCCCGGTAATCCGTATTTGGA (site CTACTTACTTC) | 0.176 |
| CTACTAACATGGACCGGTTTTCCCGGTAATCCGTATTTGGA (site CTAGTAACTTC) | 0.141 |
| CTACTAACATGGACCGGTTTTCCCGGTAATCCGTATTTGGA (site CTATTAACTTC) | 1.29 |
| CTACTAACATGGACCGGTTTTCCCGGTAATCCGTATTTGGA (site CTCCTAACTTC) | 0.373 |
| CTACTAACATGGACCGGTTTTCCCGGTAATCCGTATTTGGA (site CTGCTAACTTC) | 0.331 |
| CTACTAACATGGACCGGTTTTCCCGGTAATCCGTATTTGGA (site CTTCTAACTTC) | 0.11 |
| CTACTAACATGGACCGGTTTTCCCGGTAATCCGTATTTGGA (site GTACTAACTTC) | 0.0739 |
| CTACTAACATGGACCGGTTTTCCCGGTAATCCGTATTTGGA (site TTACTAACTTC) | 0.417 |
| CTACTAGCATGGACCGGTTTTCCCGGTAATCCGTATTTGAC (site CTACTAGCTGT) | 2.64 |
| CTACTAGCATGGACCGGTTTTCCCGGTAATCCGTATTTGAC (site CTAGTATCTGT) | 0 |

| Sequence | recombinant UMI read abundance (log10) |
| --- | --- |
| CTACTATCATGGACCGGTTTTCCCGGTAATCCGTATTTGAA (site CTACTATCTTT) | 2.45 |
| CTACTATCATGGACCGGTTTTCCCGGTAATCCGTATTTGAA (site CTAGTATCTGT) | 0 |
| CTACTCACATGGACCGGTTTTCCCGGTAATCCGTATTTGGA (site CTACTAACTTC) | 0.63 |
| CTACTCACATGGACCGGTTTTCCCGGTAATCCGTATTTGGA (site CTACTCACTTC) | 2.16 |
| CTACTCACATGGACCGGTTTTCCCGGTAATCCGTATTTGGA (site CTACTGACTTC) | 0.0219 |
| CTACTCACATGGACCGGTTTTCCCGGTAATCCGTATTTGGA (site CTACTTACTTC) | 0.361 |
| CTAGAAACATGGACCGGTTTTCCCGGTAATCCGTATTTGAC (site CTAGAAACTGT) | 2.76 |
| CTAGAAACATGGACCGGTTTTCCCGGTAATCCGTATTTGAC (site CTAGTATCTGT) | 0.00659 |
| CTAGAAACATGGACCGGTTTTCCCGGTAATCCGTATTTGCA (site CTAGAAACTTG) | 2.59 |
| CTAGAAACATGGACCGGTTTTCCCGGTAATCCGTATTTGCA (site CTCGAAACTTG) | 0 |
| CTAGAAACATGGACCGGTTTTCCCGGTAATCCGTATTTGCA (site CTGGAAACTTG) | 1.83 |
| CTAGAAACATGGACCGGTTTTCCCGGTAATCCGTATTTGCA (site CTTGAAACTTG) | 0.422 |
| CTAGAATCATGGACCGGTTTTCCCGGTAATCCGTATTTGAG (site CTAGAATCTCT) | 3.11 |
| CTAGAATCATGGACCGGTTTTCCCGGTAATCCGTATTTGAG (site CTAGTATCTGT) | 0 |
| CTAGACCCATGGACCGGTTTTCCCGGTAATCCGTATTTGGA (site CTAGACCCTTC) | 0.351 |
| CTAGATTCATGGACCGGTTTTCCCGGTAATCCGTATTTGGA (site CTAGATTCTTC) | 2.84 |
| CTAGCATCATGGACCGGTTTTCCCGGTAATCCGTATTTGCC (site CTAGCATCTGG) | 2.4 |
| CTAGCATCATGGACCGGTTTTCCCGGTAATCCGTATTTGCC (site CTAGTATCTGT) | 0 |
| CTAGCCACATGGACCGGTTTTCCCGGTAATCCGTATTTGGA (site GACCAATCTAA) | 0 |
| CTAGCTGCATGGACCGGTTTTCCCGGTAATCCGTATTTGTG (site ATAGCTGCTCA) | 0.0231 |
| CTAGCTGCATGGACCGGTTTTCCCGGTAATCCGTATTTGTG (site CTAGCTGCTCA) | 1.75 |
| CTAGCTGCATGGACCGGTTTTCCCGGTAATCCGTATTTGTG (site GTAGCTGCTCA) | 0.0102 |
| CTAGCTGCATGGACCGGTTTTCCCGGTAATCCGTATTTGTG (site TTAGCTGCTCA) | 0.0211 |
| CTAGCTTCATGGACCGGTTTTCCCGGTAATCCGTATTTGTG (site CTAGCTTCTCA) | 2.19 |
| CTAGGTGCATGGACCGGTTTTCCCGGTAATCCGTATTTGAT (site CAAGGTGCTAT) | 1.59 |

| Sequence | recombinant UMI read abundance (log10) |
| --- | --- |
| CTAGGTGCATGGACCGGTTTTCCCGGTAATCCGTATTTGAT (site CCAGGTGCTAT) | 1.39 |
| CTAGGTGCATGGACCGGTTTTCCCGGTAATCCGTATTTGAT (site CGAGGTGCTAT) | 0.0806 |
| CTAGGTGCATGGACCGGTTTTCCCGGTAATCCGTATTTGAT (site CTAGGTGCTAT) | 2.14 |
| CTAGTAACATGGACCGGTTTTCCCGGTAATCCGTATTTGAC (site CTAGTAACTGT) | 3.1 |
| CTAGTAACATGGACCGGTTTTCCCGGTAATCCGTATTTGAC (site CTAGTACCTGT) | 0 |
| CTAGTAACATGGACCGGTTTTCCCGGTAATCCGTATTTGAC (site CTAGTAGCTGT) | 2.73 |
| CTAGTAACATGGACCGGTTTTCCCGGTAATCCGTATTTGAC (site CTAGTATCTGT) | 1.83 |
| CTAGTCACATGGACCGGTTTTCCCGGTAATCCGTATTTGAC (site CTAGTATCTGT) | 0 |
| CTAGTCACATGGACCGGTTTTCCCGGTAATCCGTATTTGAC (site CTAGTCACTGT) | 2.59 |
| CTAGTTTCATGGACCGGTTTTCCCGGTAATCCGTATTTGAA (site CTAGTATCTGT) | 0 |
| CTAGTTTCATGGACCGGTTTTCCCGGTAATCCGTATTTGAA (site CTAGTTTCTTT) | 1.85 |
| CTAGTTTCATGGACCGGTTTTCCCGGTAATCCGTATTTGCC (site CTAGTATCTGT) | 0 |
| CTAGTTTCATGGACCGGTTTTCCCGGTAATCCGTATTTGCC (site CTAGTTTCTGG) | 2.53 |
| CTATAATCATGGACCGGTTTTCCCGGTAATCCGTATTTGCT (site CGATCATCTAG) | 0 |
| CTATAATCATGGACCGGTTTTCCCGGTAATCCGTATTTGCT (site CTATAATCTAG) | 3.13 |
| CTATATCCATGGACCGGTTTTCCCGGTAATCCGTATTTGAG (site CTATATCCTCT) | 1.41 |
| CTATCCTCATGGACCGGTTTTCCCGGTAATCCGTATTTGCT (site CGATCATCTAG) | 0 |
| CTATCCTCATGGACCGGTTTTCCCGGTAATCCGTATTTGCT (site CTATCCTCTAG) | 3.09 |
| CTATCCTCATGGACCGGTTTTCCCGGTAATCCGTATTTGTT (site CTATCCTCTAA) | 2.79 |
| CTATTAACATGGACCGGTTTTCCCGGTAATCCGTATTTGGA (site CTAATAACTTC) | 0.484 |
| CTATTAACATGGACCGGTTTTCCCGGTAATCCGTATTTGGA (site CTACTAACTTC) | 0.342 |
| CTATTAACATGGACCGGTTTTCCCGGTAATCCGTATTTGGA (site CTAGTAACTTC) | 0.397 |
| CTATTAACATGGACCGGTTTTCCCGGTAATCCGTATTTGGA (site CTATTAACTTC) | 1.64 |
| CTATTGGCATGGACCGGTTTTCCCGGTAATCCGTATTTGTA (site CTATTGGCTTA) | 1.84 |
| CTATTGTCATGGACCGGTTTTCCCGGTAATCCGTATTTGAC (site CTAGTATCTGT) | 0 |
